Tests used:
[1] = tested on: human iPSC-derived cardiomyocytes; experiment: CiPA multielectrode array (MEA) assay, cell index; format: cell-based
Method: To determine the effect of anti-DSG2 antibodies in cardiomyocytes, the cardiac in vitro proarrhythmia (CiPA) assay was performed (Sager et al. Am Heart J 2014; 167:292-300; the contents of which are herein incorporated by reference in its entirety). CiPA is envisioned to consist of four components: (1) an evaluation of the effects of test agents on cardiac ion channel assays; (2) in silico modeling of the cardiac action potential based on the ion channel results to integrate the data with cardiac function; (3) experimental measurement of test agent effects in human ventricular myocytes to confirm the modeling result; and (4) scoring the results. The multielectrode array (MEA) assay is a component of CiPA which uses human induced pluripotent stem cell (iPSC)-derived cardiomyocytes to evaluate two-dimensional excitation propagation by recording spontaneous ECG-like field potentials. The sodium spike quantified below is a measurement of the specific sodium channel current in the cardiomyocyte and is also described in Blinova K, et al. Cell Rep. 2018 Sep. 25; 24(13):3582-3592 (the contents of which are herein incorporated by reference in its entirety). CiPA is considered a clinically validated cardiomyocyte-based assay by the FDA and the EMA. […] The parameters evaluated include measuring a change in the spike in the component of electrical signal propagation (e.g. sodium spike) and cell index—a function of cell impedance and cell number. Changes in sodium spike may be indicative of arrhythmia and a change in cell index (CI) may be indicative of changes to cell connectivity.
Cell index is inversely related the cell layer's conductivity to electrical current. Increased conductivity across the cell layer, may indicate that there are more gaps in the cell layer, implying that the cells are less well-adhered to each other. Thus, increased conductivity across the cell layer, may result in lower cell index. […] The concentration of anti-DSG2 antibodies varied from 0.00005 μg/mL to 5 μg/mL. […] The concentration of lidocaine varied from 3 μM to 100 μM. […] The concentration of anti-DSG2 antibodies varied from 0.00005 μg/mL to 5 μg/mL.

[2] = tested on: human iPSC cardiomyocytes; experiment: CiPA multielectrode array (MEA) assay, sodium spike; format: cell-based; details: anti-DSG2 antibodies 0.5 μg/mL; lidocaine 10 μM; negative controls 0.5 g/mL as printed; 0 to 96 hours
Method: To determine the effect of anti-DSG2 antibodies in cardiomyocytes, the cardiac in vitro proarrhythmia (CiPA) assay was performed (Sager et al. Am Heart J 2014; 167:292-300; the contents of which are herein incorporated by reference in its entirety). CiPA is envisioned to consist of four components: (1) an evaluation of the effects of test agents on cardiac ion channel assays; (2) in silico modeling of the cardiac action potential based on the ion channel results to integrate the data with cardiac function; (3) experimental measurement of test agent effects in human ventricular myocytes to confirm the modeling result; and (4) scoring the results. […] The sodium spike quantified below is a measurement of the specific sodium channel current in the cardiomyocyte and is also described in Blinova K, et al. Cell Rep. […] The parameters evaluated include measuring a change in the spike in the component of electrical signal propagation (e.g. sodium spike) and cell index—a function of cell impedance and cell number. […]
Commercially available anti-DSG2 antibodies were tested in the cardiomyocyte CiPA assay. […] The voltage (μV) is measured at time intervals of 0, 1 hour, 12 hours, 24 hours, 48 hours, 72 hours, and 96 hours. […]

[3] = molecular target: anti-DSG2 antibody; experiment: anti-DSG2 antibody MSD assay; inhibition of the antibody signal by the fusion polypeptide; antibody at 1000 ng/mL
[4] = molecular target: anti-DSG2 antibody; experiment: anti-DSG2 antibody MSD assay; inhibition of the antibody signal by the fusion polypeptide; antibody at 200 ng/mL

Molecule | Cell Index (+/- SEM) ([1]; 3 μM) | Cell Index (+/- SEM) ([1]; 10 μM) | Cell Index (+/- SEM) ([1]; 30 μM) | Cell Index (+/- SEM) ([1]; 100 μM) | effect on cell index (in words) ([1]; lidocaine 3 μM to 100 μM, antibodies 0.00005 μg/mL to 5 μg/mL) | effect on cardiomyocyte sodium spike (in words) [2] | % inhibition [3] [%] | % inhibition [4] [%]
CCN(CC)CC(=O)Nc1c(C)cccc1C [Lidocaine, lidocaine] | 19.9 (2.84) | 20.2 (3.1) | 18.7 (2.0) | 11.0 (4.8) | marked reduction in cell index and likely cell death | dampen the sodium spike |  | 
recombinant human desmoglein-2 Fc chimera protein, CF (DSG2FP#1) (Fc fusion) |  |  |  |  |  |  | 88.4 | 63.8
